Results reported in patent publication US8829024B2, “Combination steroid and glucocorticoid receptor antagonist therapy” (Corcept Therapeutics, Inc., priority 2011, dated 2014).

Tests used:
[1] = test system: GR induced transrepression (LPS activated TNFα release); assay: Glucocorticosteroid transrepression assay (LPS activated TNFα release in peripheral blood mononuclear cells); type: cell-based; conditions: human PBMC, 10 ng/ml LPS; for blockade of dexamethasone induced repression of LPS activated TNFα release (antagonism of transrepression): in presence of 50 nM dexamethasone, FIG. 1b
Description: Using a cell-based model (human peripheral blood mononuclear cells), dexamethasone was administered to the cells and the release of TNFα was measured. After addition of the GR modulator of the present invention, the release of TNFα was again measured and compared to the amount released in the absence of the GR modulator.
Human peripheral blood mononuclear cells were isolated and distributed in 96-well plates at a density of 2×10^5 cells/well in medium. Compounds were tested at 7 concentrations (semi-log dilutions) and prepared at 5× final assay concentration in 1.5% DMSO. Following a preincubation of 30 minutes with compounds the plates are then incubated in presence of 50 nM dexamethasone or media for 30 minutes. TNFα release was activated by overnight incubation with 10 ng/ml LPS. Human TNFα was measured using chemiluminescence detected on the SECTOR® Imager 6000 (Mesoscale). Dexamethasone was used to inhibit LPS activated TNFα release via the glucocorticoid receptor. […] In some cases, CORT-108297 was added in the absence of dexamethasone to determine if CORT-108297 inhibited LPS activated TNFα release.

[2] = test system: GR induced transactivation (tyrosine amino transferase expression); assay: Glucocorticosteroid transactivation assay (tyrosine amino transferase expression in primary hepatocytes); type: cell-based; conditions: human liver hepatocytes; for inhibition of dexamethasone induced expression of tyrosine amino transferase (antagonism of GR induced transactivation): in presence of 50 nM dexamethasone, FIG. 2b
Description: GR modulators of the present invention that inhibit GR induced transactivation can be identified by measuring the amount of tyrosine amino transferase expressed in the presence of the GR induced transactivation in a cell model (human liver hepatocytes).
In this example, dexamethasone induces the expression of tyrosine amino transferase by transactivation. Typically, glucocorticosteroids, such as the synthetic dexamethasone, bind the ligand-binding domain of the glucocorticoid receptor (GR) to promote nuclear translocation. In the nucleus, the DNA binding domain directs dimerization on imperfect DNA palindromes known as simple glucocorticoid response elements (GREs) to transcriptionally activate genes including tyrosine amino transferase (TAT).
Primary hepatocytes were distributed in 96-well collagen coated plates and equilibrated in media (without hydrocortisone) for 6 hours. Compounds were tested at 6 concentrations (semi-log dilutions) and prepared in 0.2% DMSO in the presence of 50 nM dexamethasone or media. Hepatocytes in the presence of compound were incubated for 24 hours, washed in PBS and lysed for 30 minutes (30 μl lysis volume). The TAT enzyme assay was initiated by the addition of 170 μl TAT assay buffer (substrate) for 1 hour. The reaction was terminated by the addition of 30 μl 10N KOH and the 96-well plates incubated for a further 30 min […] to allow formation of the aromatic aldehyde product, p-hydroxybenzaldehyde. Absorbance was read at 340 nm on a spectrophotometer.
Reagents: TAT assay buffer: 0.2 M KH2PO4 pH7.4 containing 5.4 mM L-tyrosine, 10.8 mM α-ketoglutaric acid and 0.06 mM Pyridoxal-5-phosphate monohydrate.
Dexamethasone was used to increase the expression of tyrosine amino transferase in human liver hepatocytes.

Row | Structure (SMILES) | inhibition of LPS activated TNFα release, compound alone (transrepression agonism), in words ([1]; FIG. 1a) | maximal inhibition of LPS activated TNFα release, compound alone ([1]; at micromolar concentrations, no dexamethasone, FIG. 1a) | blockade of dexamethasone induced repression of LPS activated TNFα release (antagonism of transrepression) [1] | expression of tyrosine amino transferase (increase), compound alone ([2]; all concentrations assayed, no dexamethasone, FIG. 2a) | inhibition of dexamethasone induced expression of tyrosine amino transferase (antagonism of GR induced transactivation) [2] | concentration giving maximal increase in TAT expression (transactivation) ([2]; compound alone, FIG. 2a)
1 | CCOC[C@]12Cc3cnn(-c4ccc(F)cc4)c3C=C1CCN(S(=O)(=O)c1ccc(C(F)(F)F)cc1)C2 [CORT-108297] | weak partial agonist of GR induced transrepression | 48% | only shows partial blockade at higher concentrations | ≤ 0% | full potent antagonist of GR induced transactivation | 
2 | C[C@@H]1C[C@H]2[C@@H]3CCC4=CC(=O)C=C[C@]4(C)[C@@]3(F)[C@@H](O)C[C@]2(C)[C@@]1(O)C(=O)CO [dexamethasone, reference compound] |  |  |  |  |  | about 100 nM
3 | CC#C[C@]1(O)CC[C@H]2[C@@H]3CCC4=CC(=O)CCC4=C3[C@@H](c3ccc(N(C)C)cc3)C[C@@]21C [mifepristone, reference compound] |  |  | completely blocks this effect |  | inhibit the increased expression of tyrosine amino transferase | 
